{
  "source": "patent US9546367B2",
  "about": "“siRNA compositions and methods for inhibiting gene expression in tumor initiating cells of breast cancer” (priority 2011, dated 2017)",
  "key": {"[1]": {"system": "BT549", "assay": "high-throughput lentiviral shRNA mammosphere formation (MSFE) screen", "assay_type": "cell-based, human", "details": "Z-score of mammosphere formation vs plate mean, one shRNA per well, 2000 cells/well, 8 biological replicates", "description": "(§1) In previously published results, the inventors described a breast cancer stem cell signature that comprised a set of 493 statistically significant, differentially expressed genes that were present in a tumorigenic subpopulation of breast cancer cells (Creighton et al. 2009). The biological confirmation of the significance of these differentially expressed genes was conducted using a shRNA-based gene knockdown approach, correlating the selective knockdown of target genes with mammosphere formation efficacy (MSFE), an in vitro assay for self-renewal. A library of shRNAs which targets the entire human genome (Open Biosystems, Boston, Mass., USA) was used to create a sub-library of shRNAs against the 493 differentially expressed genes in the tumorigenic signature. A total of 1124 shRNAs (˜2-3 shRNA per gene), and appropriate control shRNAs that were encoded in the pGIPZ vector with a green fluorescent protein tag were selected and arrayed on 13×96-well microtiter plates.\n(§2) These shRNAs were packaged into lentiviral particles using a second-generation lentiviral packaging system (Addgene, Cambridge, Mass., USA) in 293T cells plated on 96-well plates. The supernatant was then harvested for transduction and expression in a wide range of cell types. Specifically, lentiviruses were collected 3 days after transfection, frozen at −80° C. immediately, and then thawed for transducing two different breast cancer cell lines SUM159PT (American Type Culture Collection; Manassas, Va., USA) and BT549 (ATCC) with 8 biological replicates. Cells were plated in 13×96-well ultra-low attachment plates, at 2000 cells/well, with one shRNA being transduced per well using the Biomek 3000 automated workstation (Beckman Coulter; Brea, Calif. USA), in order to ensure reproducibility and accuracy.\n(§3) The lentiviral transduction rate (˜80-90%) in these cell lines was evaluated by fluorescence microscopy using the GFP tag in the pGIPZ vector. MSFE was then assessed in a high throughput screening approach of all 493 genes.\n(§4) For shRNA knockdown studies, the mean and the standard deviation from all measurements of each plate for each replicated experiment were estimated. The Z-score was calculated by subtracting the mean of the plate values and dividing this difference by the standard deviation. […] For tumor volume fold-change comparisons, one-way Anova was used to compare different treatment groups. This was followed by Tukey analysis for a pairwise comparison of different treatment groups. For the tumor recurrence studies, events were defined as first appearance of tumor >50 mm^3 after completion of treatment. Time to recurrence was derived by Kaplan-Meier method, with differences compared using the generalized Mann-Whitney-Wilcoxon rank-sum test.\n(§5) Previously, a breast cancer stem cell signature was identified comprising 493 statistically significant differentially expressed genes (Creighton et al., 2009). The biological significance of this gene set was confirmed by conducting shRNA-based gene knockdown, and correlating the selective knockdown of target genes using mammosphere-forming efficiency (MSFE), an in vitro assay for self-renewal. As described in the previous examples, a library of shRNAs targeting the entire human genome (Open Biosystems, MA, USA) was used to create a sub-library of shRNAs against the differentially expressed genes in the tumorigenic signature. Using these genes along with appropriate control shRNAs, a total of 1124 shRNAs (˜2-3 shRNA per gene) were tagged with green fluorescent protein, and encoded in pGIPZ vector, and then arrayed on to 13×96-well plates. These shRNAs were packaged into lentiviral particles using a second-generation lentiviral packaging system (Thermo-Fischer, USA) in 293T cells plated in 96-well plates. The supernatant was then harvested for transduction and expression in a wide range of cell types. […]"}, "[2]": {"system": "SUM159", "assay": "high-throughput lentiviral shRNA mammosphere formation (MSFE) screen", "assay_type": "cell-based, human", "details": "Z-score of mammosphere formation vs plate mean, one shRNA per well, 2000 cells/well, 8 biological replicates", "description": "as §1, §2, §3, §4, §5"}, "[3]": {"system": "SUM159", "assay": "high-throughput lentiviral shRNA mammosphere formation (MSFE) screen", "assay_type": "cell-based, human", "details": "positive control; for mammosphere forming efficiency: increasing concentration, SUM159 cells"}, "[4]": {"system": "BT549", "assay": "in vitro MSFE with nanoliposome/silicon particle packaged siRNA", "assay_type": "cell-based, human", "details": "BT549", "description": "“Claudin-low”-like human breast cancer cell lines (SUM159 and BT549) were plated in 24-well ultralow attachment plates with mammary epithelial growth medium (MEGM) (5,000 cells/well). Both cell lines were then treated with 1 μg/well/6 wells of silicon particles loaded with DOPC nanoliposomes/siRNA. The primary MSs were allowed to grow for 3 days. MFs were counted on Day 3 with a GelCount colony counter (Oxford Optronix, Oxford, UK). Mammosphere-Forming Efficiency (MSFE) was calculated by dividing the number of MSs by the number of seeded cells. In addition, established MSs were serially passaged by dissociation, and single cells were re-plated on fresh 24-well, ultra-low-attachment plates to form secondary mammospheres, which were counted after 3 days. One-way ANOVA and Tukey tests were performed. A p-value of less than 0.05 was considered significant.\nTo develop a more clinically relevant model, two of the identified candidates (MLF2 and RPL39L) were compared to Stat3 (positive control), and their siRNA sequences identified within the shRNA vector. These siRNAs were then packaged in nanoliposomes and tested for MSFE using the same protocol as above, except for the addition of packaged siRNA instead of lentiviral shRNA. (N.B. wherein shRNA requires a promoter and needs to be transcribed in order to function, siRNA functions by itself once incorporated into recipient cells).\nTo develop siRNA nanotherapeutics targeting TIC, studies have been conducted to confirm the essential roles of the candidate TIC genes. Exemplary siRNA oligonucleotides specific for STAT3, MFL2, and RPL39L were formulated into nanoliposomes, which were then loaded into porous silicon MSV particles. For in vitro assay, BT549 and SUM159 cells were incubated with MSV/siRNA, and primary and secondary MSFE was measured. […] For in vivo assessment, SCID/Beige mice were inoculated with SUM159 tumor, and treated with MDS/siRNA delivered by tail vein injection. Cells were then isolated from tumor mice 3 weeks later, and MSFE was measured. […] These studies indicate that 1) MDS/siRNA could successfully be delivered to tumor tissues effectively in vivo, 2) uptake of MDS/siRNA by TIC was efficient, and 3) MFL2 and RPL39L were essential genes for TIC.\nThe siRNA sequences of two candidate genes RPL39 and MLF2 were packaged in nanoliposomes and the effects on MSFE determined in vitro, as described above, using packaged siRNA instead of lentiviral shRNA."}, "[5]": {"system": "MDAMB231 lung metastasis", "assay": "in vivo lung metastasis of luciferase-tagged MDAMB231, IVIS imaging", "set-up": "species or system SCID-beige mice", "details": "siRNA in cationic liposomes twice weekly, week six", "description": "3 million cells MDAMB231 cancer cells, stably transfected with luciferase, were injected in the mammary fat pad of SCID-beige mice and were randomized into 3 groups: (1) vehicle+scrambled siRNA, (2) vehicle+MLF2 siRNA, and (3) vehicle+RPL39 siRNA, and treated with siRNA packaged liposomes twice weekly for 6 weeks. The mice were injected with D-luciferin every week for 6 weeks to determine lung metastases using IVIS imaging (Perkin Elmer). The primary tumors were removed by week 5 to continue this study without increasing the primary tumor burden to 10% of body weight.\nTo assess the effects of RPL39 and MLF2 siRNA on lung metastasis, SCID-Beige mice were injected with luciferase-tagged MDAMB231 cells and treated with siRNA against RPL39 or MLF2 packaged in cationic liposomes, twice weekly simultaneously, and then sacrificed at week six."}, "[6]": {"system": "BCM-2665A human primary tumor", "assay": "docetaxel treatment of BCM-2665A xenograft, tumor growth and ALDF staining", "assay_type": "in vivo, SCID/Beige mice", "description": "SCID/Beige mice were inoculated with BCM-2665A human primary tumor tissues. After tumors reached 1 cm^3 in size, the tumor mice were treated with 20 mg/kg docetaxel. […] The residual tumor tissues were collected at the end of the experiment, treated with collagenase, and single cells were stained with Aldefluor® reagent (ALDF). Positive staining by ALDF is one of the characteristic markers for TIC. The percentage of ALDF-positive cells was higher in the docetaxel-treated tumor, than in the control samples."}},
  "data": [
    {"compound": "O=S1(=O)N[C@@]2(CN1CC(F)(F)F)[C@@H]1CC[C@H]2Cc2ccc(/C=C/CN3CCC(C(F)(F)F)CC3)cc2C1", "note": "[MRK-003]", "values": [
      {"measurement": "BT 549 Z-score", "setting": "[1]; listed as AA_GSI_pos1_1", "result": "−0.731"},
      {"measurement": "BT 549 Z-score", "setting": "[1]; listed as AA_GSI_pos1_6", "result": "−0.688"},
      {"measurement": "BT 549 Z-score", "setting": "[1]; listed as AA_GSI_pos1_8", "result": "−0.519"},
      {"measurement": "BT 549 Z-score", "setting": "[1]; listed as AA_GSI_pos1_10", "result": "−0.719"},
      {"measurement": "BT 549 Z-score", "setting": "[1]; listed as AA_GSI_pos1_11", "result": "−0.675"},
      {"measurement": "BT 549 Z-score", "setting": "[1]; listed as AA_GSI_pos2_5", "result": "−0.463"},
      {"measurement": "BT 549 Z-score", "setting": "[1]; listed as AA_GSI_pos2_8", "result": "−0.894"},
      {"measurement": "BT 549 Z-score", "setting": "[1]; listed as AA_GSI_pos2_10", "result": "−0.685"},
      {"measurement": "BT 549 Z-score", "setting": "[1]; listed as AA_GSI_pos2_13", "result": "−0.397"},
      {"measurement": "SUM 159 Z-score", "setting": "[2]; listed as AA_GSI_pos1_1", "result": "−2.026"},
      {"measurement": "SUM 159 Z-score", "setting": "[2]; listed as AA_GSI_pos1_6", "result": "−1.904"},
      {"measurement": "SUM 159 Z-score", "setting": "[2]; listed as AA_GSI_pos1_8", "result": "−1.850"},
      {"measurement": "SUM 159 Z-score", "setting": "[2]; listed as AA_GSI_pos1_10", "result": "−1.697"},
      {"measurement": "SUM 159 Z-score", "setting": "[2]; listed as AA_GSI_pos1_11", "result": "−2.078"},
      {"measurement": "SUM 159 Z-score", "setting": "[2]; listed as AA_GSI_pos2_5", "result": "−1.923"},
      {"measurement": "SUM 159 Z-score", "setting": "[2]; listed as AA_GSI_pos2_8", "result": "−1.971"},
      {"measurement": "SUM 159 Z-score", "setting": "[2]; listed as AA_GSI_pos2_10", "result": "−2.139"},
      {"measurement": "SUM 159 Z-score", "setting": "[2]; listed as AA_GSI_pos2_13", "result": "−1.857"},
      {"measurement": "MS formation", "setting": "[3]; 10 μM concentration", "result": "dramatically reduced"},
      {"measurement": "mammosphere forming efficiency", "setting": "[3]", "result": "dose-dependent decrease"},
      {"measurement": "mammosphere forming efficiency", "setting": "[3]; listed as notch inhibitor", "result": "inhibiting MS formation"}
    ]},
    {"compound": "scrambled siRNA: control siRNA; sense SEQ ID NO: 1 ATCTCGCTTGGGCGAGAGTAAG, antisense SEQ ID NO: 17 CTTACTCTCGCCCAAGCGAGAG (listed as DNA, chemistry not given here) [reference compound]", "values": [
      {"measurement": "MSFE, primary MSs", "setting": "[4]; 1 μg/well silicon particles loaded with DOPC nanoliposomes/siRNA, counted Day 3", "result": 2.4, "unit": "%"},
      {"measurement": "MSFE, secondary MSs", "setting": "[4]; silicon particles loaded with DOPC nanoliposomes/siRNA, re-plated, counted after 3 days", "result": 1, "unit": "%"},
      {"measurement": "lung metastasis (animals with metastasis / animals), IVIS imaging", "setting": "[5]", "result": "12/12"}
    ]},
    {"compound": "CC(=O)O[C@@]12CO[C@@H]1C[C@H](O)[C@@]1(C)C(=O)[C@H](O)C3=C(C)[C@@H](OC(=O)[C@H](O)[C@@H](NC(=O)OC(C)(C)C)c4ccccc4)C[C@@](O)([C@@H](OC(=O)c4ccccc4)[C@H]21)C3(C)C", "note": "[docetaxel]", "values": [
      {"measurement": "tumor growth", "setting": "[6]; 20 mg/kg docetaxel, next 14 days", "result": "Significant inhibition"},
      {"measurement": "percentage of ALDF-positive cells", "setting": "[6]; residual tumor after 20 mg/kg docetaxel, vs control samples", "result": "higher"}
    ]}
  ]
}
